The text below walks through data of ChEMBL document CHEMBL4680273, “Teixobactin: A Paving Stone toward a New Class of Antibiotics?” (2020).

Holding throughout (format): functional
The test system of experiment [1] is Staphylococcus aureus. Put plainly: Antibacterial activity against Staphylococcus aureus ATCC 29213.
For experiment [2], the system named is Staphylococcus aureus. Description: Antibacterial activity against methicillin- resistant Staphylococcus aureus SA86.
For another experiment, the system named is Bacillus subtilis. Description: Antibacterial activity against Bacillus subtilis ATCC 6051 incubated for 24 hrs by CLSI based broth microdilution method. A general note: In broth dilution the organism is exposed to a series of concentrations in liquid medium.
The test system of experiment [3] is Staphylococcus aureus. Put plainly: Antibacterial activity against Staphylococcus aureus ATCC 29213 incubated for 24 hrs by CLSI-based broth microdilution method.
The test system of experiment [4] is Staphylococcus aureus. Put plainly: Antibacterial activity against methicillin resistant Staphylococcus aureus USA300.
The subject of experiment [5] is Staphylococcus epidermidis. Description: Antibacterial activity against Staphylococcus epidermidis ATCC 14990 incubated for 16 hrs by UV/Visible absorbance method.

≈ marks a conversion by molar mass, not a printed value.

In the case of `CC[C@H](C)[C@H](NC(=O)[C@H](NC(=O)[C@@H](CCC(N)=O)NC(=O)[C@H](CO)NC(=O)[C@H](CC(C)C)NC(=O)[C@@H](Cc1ccccc1)NC)[C@@H](C)CC)C(=O)N[C@@H](CO)C(=O)N[C@H]1C(=O)N[C@@H](C)C(=O)NC(CCCN)C(=O)N[C@@H]([C@@H](C)CC)C(=O)O[C@H]1C` (stereo not given in full), the MIC against Staphylococcus aureus [1] and in the experiment with Staphylococcus aureus [2] was 4 µg/mL (≈ 3.33 µM) throughout.
Consider `CC[C@H](C)[C@H](NC(=O)[C@H](NC(=O)[C@@H](CCC(N)=O)NC(=O)[C@H](CO)NC(=O)[C@@H](NC(=O)[C@@H](Cc1ccccc1)NC)C(C)C)[C@@H](C)CC)C(=O)N[C@@H](CO)C(=O)N[C@H]1C(=O)N[C@@H](C)C(=O)NC(CCCN)C(=O)N[C@@H]([C@@H](C)CC)C(=O)O[C@H]1C` (stereo not given in full), for which the MIC in the experiment with Staphylococcus aureus [1] and with Staphylococcus aureus [2] was 8 µg/mL (≈ 6.73 µM) each time.
On to `CC[C@H](C)[C@H](NC(=O)[C@@H](Cc1ccccc1)NC)C(=O)N[C@@H](CO)C(=O)N[C@H](CCC(N)=O)C(=O)N[C@@H](C(=O)N[C@H](C(=O)N[C@@H](CCCCO)C(=O)N[C@H]1C(=O)N[C@@H](C)C(=O)N[C@@H](CCCNC(=N)N)C(=O)N[C@@H]([C@@H](C)CC)C(=O)O[C@H]1C)[C@@H](C)CC)[C@@H](C)CC`, for which the MIC – broadly, the lowest concentration that inhibits growth of the organism – in the experiment on Bacillus subtilis turned out to be 8 µg/mL (≈ 6.22 µM); in the experiment on Staphylococcus aureus [3], 32 µg/mL (≈ 24.9 µM).
In the experiment on Staphylococcus aureus [4], `CC[C@H](C)[C@H](NC(=O)[C@@H](Cc1ccccc1)NC)C(=O)N[C@@H](CO)C(=O)N[C@H](CCC(N)=O)C(=O)N[C@@H](C(=O)N[C@H](C(=O)N[C@@H](CO)C(=O)N[C@H]1C(=O)N[C@@H](C)C(=O)N[C@@H](CCC/N=C(\N)N(C)C)C(=O)N[C@@H]([C@@H](C)CC)C(=O)O[C@H]1C)[C@@H](C)CC)[C@@H](C)CC` displayed an MIC of 4 µg/mL (≈ 3.14 µM).
Take `CC[C@H](C)[C@@H]1NC(=O)[C@H](CCCNC(=N)N)NC(=O)[C@H](C)NC(=O)[C@H](NC(=O)[C@H](CO)NC(=O)[C@@H](NC(=O)[C@H](NC(=O)[C@@H](CCC(N)=O)NC(=O)[C@H](CO)NC(=O)[C@@H](NC(=O)[C@@H](Cc2ccccc2)NC)[C@@H](C)CC)[C@@H](C)CC)[C@@H](C)CC)CNC1=O`: in experiment [5], 1 µg/mL (≈ 0.813 µM) was the least that counted as inhibitory (MIC).
For `CC[C@H](C)[C@H](NC(=O)[C@@H](Cc1ccccc1)NC)C(=O)N[C@@H](CO)C(=O)N[C@H](CCC(N)=O)C(=O)N[C@@H](C(=O)N[C@H](C(=O)N[C@@H](CO)C(=O)N[C@H]1C(=O)N[C@@H](C)C(=O)NC(CCCN)C(=O)N[C@@H]([C@@H](C)CC)C(=O)O[C@H]1C)[C@@H](C)CC)C(C)C` (stereo not given in full), the MIC turned out to be 8 µg/mL (≈ 6.73 µM) in the experiment with Staphylococcus aureus [1] and 16 µg/mL (≈ 13.5 µM) against Staphylococcus aureus [2].
Regarding `CC[C@H](C)[C@H](NC(=O)[C@@H](Cc1ccccc1)NC)C(=O)N[C@@H](CO)C(=O)N[C@H](CCC(N)=O)C(=O)N[C@@H](C(=O)N[C@H](C(=O)N[C@@H](CO)C(=O)N[C@H]1C(=O)N[C@@H](C)C(=O)NC(CCCN)C(=O)N[C@@H](C(C)C)C(=O)O[C@H]1C)[C@@H](C)CC)[C@@H](C)CC` (stereo not given in full), the minimum inhibitory concentration (MIC) against Staphylococcus aureus [1] and with Staphylococcus aureus [2] was 8 µg/mL (≈ 6.73 µM) in each case.
In the experiment on Staphylococcus aureus [4], `CC[C@H](C)[C@H](NC(=O)[C@@H](Cc1ccccc1)NC)C(=O)N[C@@H](CO)C(=O)N[C@H](CCC(N)=O)C(=O)N[C@@H](C(=O)N[C@H](C(=O)N[C@@H](CO)C(=O)N[C@H]1C(=O)N[C@@H](C)C(=O)N[C@@H](CCCNC(N)=O)C(=O)N[C@@H]([C@@H](C)CC)C(=O)O[C@H]1C)[C@@H](C)CC)[C@@H](C)CC` gave an MIC of 16 µg/mL (≈ 12.8 µM).
As for `CC[C@H](C)[C@H](NC(=O)[C@@H](Cc1ccccc1)NC)C(=O)N[C@@H](CCCCN)C(=O)N[C@H](CCC(N)=O)C(=O)N[C@@H](C(=O)N[C@H](C(=O)N[C@@H](CO)C(=O)N[C@H]1C(=O)N[C@@H](C)C(=O)N[C@@H](CCCNC(=N)N)C(=O)N[C@@H]([C@@H](C)CC)C(=O)O[C@H]1C)[C@@H](C)CC)[C@@H](C)CC`, the MIC in the experiment with Bacillus subtilis worked out at 0.25 µg/mL (≈ 0.194 µM); in the experiment on Staphylococcus aureus [3], 4 µg/mL (≈ 3.11 µM).
